Values quoted from earlier work, collected in patent publication US20110286960A1, “CANCER THERAPY BY DOCETAXEL AND GRANULOCYTE COLONY-STIMULATING FACTOR (G-CSF)” (OPTIMATA LTD., priority 2008, published 2011).
Where two headings read alike, the source gives them in different places.

Tests used:
[1] = Baker et al., 2004, mean ± STD
neutrophils [2] = conditions: for nadir of neutrophil level: human, in vivo
neutrophils [3] = conditions: G-CSF treatment one day post-chemotherapy
[4] = docetaxel clinical trial results (17, 28)

CC(=O)O[C@@]12CO[C@@H]1C[C@H](O)[C@@]1(C)C(=O)[C@H](O)C3=C(C)[C@@H](OC(=O)[C@H](O)[C@@H](NC(=O)OC(C)(C)C)c4ccccc4)C[C@@](O)([C@@H](OC(=O)c4ccccc4)[C@H]21)C3(C)C [Docetaxel]
AUC ([1]; 35 mg/m^2): 1320 ± 420 ng·h/mL
Clearance ([1]; 35 mg/m^2): 29.10 ± 10.20 L/h*m^2
Cmax ([1]; 35 mg/m^2): 1850 ± 730 ng/mL
Terminal half life ([1]; 35 mg/m^2): 15.60 ± 12.00 h
AUC ([1]; 100 mg/m^2): 5620 ± 2120 ng·h/mL
Clearance ([1]; 100 mg/m^2): 19.60 ± 5.60 L/h*m^2
Cmax ([1]; 100 mg/m^2): 4150 ± 1350 ng/mL
Terminal half life ([1]; 100 mg/m^2): 17.20 ± 6.20 h
patients suffering grade 3/4 neutropenia (neutrophils [2]; 14 patients, weekly docetaxel 40-45 mg/m^2, three consecutive weeks in cycles of four weeks (38)): Half
nadir recorded on days (neutrophils [2]; [4]): 6 to 10 days
recovery to baseline recorded on days (neutrophils [2]; [4]): 16 to 22 days
neutropenia (neutrophils [2]; docetaxel dose up to 145 mg/m^2, as reported in (36)): acceptable neutropenia
patients suffering grade 3/4 neutropenia (neutrophils [2]; patients receiving 30-35 mg/m2/week (38)): none
docetaxel clearance, CYP3A-affected clinically observed range: 5.4-29.1 Uhr/m^2
docetaxel clearance, observed range (CYP3A inter-individual variability (27)): 5.4-29.1 L/hr/m^2

CCc1c2c(nc3ccc(OC(=O)N4CCC(N5CCCCC5)CC4)cc13)-c1cc3c(c(=O)n1C2)COC(=O)[C@]3(O)CC [Irinotecan]
nadir of neutrophil level (neutrophils [2]): 9 days

CC[C@]12C=CCN3CC[C@@]4(c5cc([C@@]6(C(=O)OC)C[C@@H]7C[C@@H](C(C)(F)F)CN(Cc8c6[nH]c6ccccc86)C7)c(OC)cc5N(C)[C@H]4[C@@](O)(C(=O)OC)[C@@H]1OC(C)=O)[C@@H]32 [vinflunine]
nadir of neutrophil level (neutrophils [2]): 20 days

B1: G-CSF: Granulocyte Colony-Stimulating Factor, neutropenia alleviating support therapy (protein, UniProt P09919 31-207, looked up)
Granulocyte …: TPLGPASSLPQSFLLKCLEQVRKIQGDGAALQEKLVSECATYKLCHPEELVLLGHSLGIPWAPLSSCPSQALQLAGCLSQLHSGLFLYQGLLQALEGISPELGPTLDTLQLDVADFATTIWQQMEELGMAPALQPTQGAMPAFASAFQRRAGGVLVASHLQSFLEVSYRVLRHLAQP
grade 4 neutropenia reported (neutrophils [2]; G-CSF post-docetaxel, locally advanced breast cancer (10) or advanced NSCLC patients (11)): No grade 4 neutropenia
effect on neutropenia (neutrophils [3]): speeds up and aggravates neutropenia
